Source: PMC4718634, “Murine GPRC6A Mediates Cellular Responses to L-Amino Acids, but Not Osteocalcin Variants” (PLoS ONE, 2016)

Tests used:
mGPRC6A (mouse GPRC6A) = biological target: T1, mGPRC6A (mouse GPRC6A) (Mus musculus, UniProt Q8K4Z6); experiment: Cyclic AMP accumulation, HEK293-pIRES-puro6-mGPRC6A cells; assay type: cell-based; settings: pIRES-puro6 higher-expressing line, S2 Fig
T1 sequence (Q8K4Z6 21-928): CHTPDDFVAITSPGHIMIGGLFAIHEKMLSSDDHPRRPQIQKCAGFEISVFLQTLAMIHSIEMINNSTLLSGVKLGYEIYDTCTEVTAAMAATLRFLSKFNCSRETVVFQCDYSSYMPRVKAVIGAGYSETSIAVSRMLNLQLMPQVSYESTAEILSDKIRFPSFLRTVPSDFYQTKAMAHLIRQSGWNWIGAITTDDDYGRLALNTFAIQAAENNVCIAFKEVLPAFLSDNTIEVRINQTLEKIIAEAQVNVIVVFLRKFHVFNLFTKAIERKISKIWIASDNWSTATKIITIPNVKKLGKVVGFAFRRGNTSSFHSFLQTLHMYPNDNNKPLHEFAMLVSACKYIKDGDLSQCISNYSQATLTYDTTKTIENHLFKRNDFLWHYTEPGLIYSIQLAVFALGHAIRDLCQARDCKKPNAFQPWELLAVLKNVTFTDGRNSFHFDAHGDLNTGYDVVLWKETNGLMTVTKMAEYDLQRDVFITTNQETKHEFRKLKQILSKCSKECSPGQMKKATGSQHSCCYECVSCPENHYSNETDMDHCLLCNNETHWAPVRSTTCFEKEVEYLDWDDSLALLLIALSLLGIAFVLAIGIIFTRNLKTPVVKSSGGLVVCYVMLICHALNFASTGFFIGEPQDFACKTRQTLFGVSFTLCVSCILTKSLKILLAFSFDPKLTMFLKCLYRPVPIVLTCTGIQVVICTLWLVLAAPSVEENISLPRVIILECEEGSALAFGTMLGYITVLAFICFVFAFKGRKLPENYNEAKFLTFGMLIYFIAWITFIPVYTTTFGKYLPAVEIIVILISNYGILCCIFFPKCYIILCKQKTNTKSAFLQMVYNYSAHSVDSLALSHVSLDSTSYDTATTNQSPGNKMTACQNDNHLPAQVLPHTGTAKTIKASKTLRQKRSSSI
Procedure: pcDNA 5/FRT/TO constructs were isogenically integrated into a FlpIn-TREx-HEK293 cell line (Life Technologies). FlpIn-TREx-HEK293-mGPRC6A and FlpIn-TREx-HEK293-hGPRC6A cells were then selected using 600 μg/ml hygromycin and 5 μg/ml blasticidin and grown in culture medium consisting of Dulbecco’s Modified Eagle Medium (DMEM), supplemented with 10% (v/v) foetal bovine serum (FBS) at 37°C in 5% CO2 and were sub-cultured in a 1:3 ratio every 3–4 days. Cells were cultured overnight in the presence of 1 μg/ml tetracycline to induce GPRC6A expression. […] 48 h after transfection, cells were selected using 3 μg/ml puromycin and grown as above.
HEK293-mGPRC6A cells were seeded at a density of 10^5 cells per well into PDL-coated 96-well plates and incubated overnight in DMEM, supplemented with 10% FBS (v/v) at 37°C in 5% CO2. Cells were then incubated in 90 μl of stimulation buffer (HBSS containing 5 mM HEPES, 0.1% BSA (w/v), 0.5 mM IBMX; pH 7.4) for 30 min at 37°C. Test compounds (10 μl at 10 x final) were added and cells were incubated for an additional 30 min at 37°C. The medium was removed and cells were incubated in 50 μl of ice-cold 100% ethanol. […] Samples were analysed using the Alphascreen® cAMP assay kit (Perkin Elmer) following manufacturer instructions. […] After overnight (16 h) incubation at RT, plates were read using the Envision plate reader.

GPRC6A = tested on: GPRC6A; set-up: method as in PMID 15576628; settings: chimera with goldfish 5.24 receptor and full length GPRC6A; ref [1]; cited from earlier work
INS-1(832) cells = experiment: Label-free cell impedance, INS-1(832) cells; assay type: cell-based, rat; settings: S1 Table
Summary of the method: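 INS-1(832) cells seeded at 2 x 10^4/well, cultured 48 h in 11.1 mM glucose RPMI, then switched to EBSS containing 2.8 mM glucose for 2 h. Compound added in the same buffer; impedance captured and analysed as for HEK293 cells.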

mice = settings: [21], cited from earlier work
Description: (§1) Additional interest in GPRC6A has emerged due to several studies reporting that it mediates the metabolic and endocrine effects of the de-carboxylated form of the osteoblast-derived peptide, osteocalcin (OCN). […] By examining cell signalling events downstream of recombinantly expressed mouse GPRC6A and phenotypic assays in cell lines endogenously expressing the Gprc6a transcript, we confirmed that GPRC6A is a receptor for basic L-amino acids, but were unable to detect any effect of OCN variants, irrespective of peptide species or source. GPRC6A has emerged in recent years as an interesting target due to its putative role in med ...

[1] = tested on: immortalised cell lines (e.g. pancreatic β-cells); settings: ref [12], cited from earlier work
Description: as §1

| Compound | inhibition of forskolin-stimulated cAMP (mGPRC6A (mouse GPRC6A); forskolin 3 μM) | stimulation of cAMP accumulation (mGPRC6A (mouse GPRC6A)) | agonist response of GPRC6A (GPRC6A) | xCELLigence response (summary) (INS-1(832) cells) | β-cell proliferation, insulin release, insulin sensitivity, energy expenditure, testosterone synthesis (mice; mice, ref [20]) | β-cell proliferation, insulin sensitivity, energy expenditure (mice; ref [12], [20]) | insulin release ([1]; blocked by siRNA targeting Gprc6a, [22]) | insulin secretion in vitro and ex vivo ([1]; [20], [21]) |
| --- | --- | --- | --- | --- | --- | --- | --- | --- |
| NCCC[C@H](N)C(=O)O [L-ornithine] | none of the ligands inhibit | Neither L-ornithine nor OCN variants stimulate cAMP accumulation | mediates responses to L-amino acids |  |  |  |  |  |
| OCN: osteoblast-derived peptide, osteocalcin; variant not specified at the place (YLYQWLGAPVPYPDPLEPRREVCELNPDCDELADHIGFQEAYRRFYGPV; UniProt P02818 52-100, looked up) |  |  |  | xCELLigence – response to OCN | increase pancreatic β-cell proliferation, insulin release from pancreatic islets, insulin sensitivity and energy expenditure and testosterone synthesis in the gonads in mice | can increase pancreatic β-cell proliferation, insulin sensitivity and energy expenditure in vivo | OCN-mediated insulin and glucagon-like peptide (GLP)-1 release | promoting insulin secretion in vitro and ex vivo |
